Columns and labels:
[1] = tested on: reconstructed skin (keratinocytes and melanocytes); assay: Reconstructed human skin model (Melanoderm); assay type: cell-based; conditions: for significant whitening of melanocytes observed as early as: after the beginning of the experiment (data not shown); for alterations of cell morphology / whitening effects on skin melanocytes: applied topically for 15 days; for whitening effects on melanocytes: topical, photographs after 14 days; for toxicity on reconstructed skin: at 0.05%
Method: The skin whitening effects of test compounds were studied using a reconstructed skin model, Melanoderm™ provided by MatTek Corp. (Ashland, Mass.) according to the manufacturer's specifications. Briefly, normal human epidermal keratinocytes and normal human melanocytes derived from dark skin donors were co-cultured on a surface of collagen-coated membrane to form multi-layered, highly differentiated skin tissue (MEL-300-B). The tissues were maintained in the CO2, incubator at 37° C. The apical surfaces of the reconstructed skin (9 mm in diameter) were exposed to air whereas the bottom surfaces remained in contact with 5 mL of maintenance medium, containing skin differentiating factors (EPI-100-NNM-113). Test compounds were formulated in 80% propylene glycol as follows: 10 mg of each test compound was dissolved in DMSO and diluted with 80% propylene glycol (1,2-propanediol, Sigma-Aldrich) to stock concentrations. The compounds were then sterilized by passing through 0.2 um filter and diluted in sterile water/propylene glycol to final test concentrations in 0.5% DMSO, 80% propylene glycol. In addition, the following controls were used: 80% propylene glycol with 0.5% DMSO, and 1% kojic acid in 80% propylene glycol.
‘Test compounds were applied to the apical surface of the tissues as follows: 25 μl of each test compound, 25 μl of 80% propylene glycol (vehicle control), and 25 μl of 1% kojic acid (positive control). The samples were reapplied every other day for 14 days. All the samples were tested in duplicate. At the end of the experiment microscopic images were taken.
The potential skin-whitening properties of test compounds were explored in a reconstructed skin model. The model consists of normal, human-derived epidermal keratinocytes and melanocytes, which have been co-cultured to form a multilayered, highly differentiated human epidermis. In this study the melanocytes were obtained from a highly pigmented donor.
Different concentrations of test compounds, 80% propylene glycol (the vehicle control), or 1% kojic acid (positive control) were repeatedly applied topically on the surface of the reconstructed skin for 15 days. […] Photographs of skin specimen taken after 15 days of the experiment show significant dose-dependent whitening effects on melanocytes, which appear on photographs as dark dendritic cells.

[2] = ORAC 5.0 antioxidant capacity; conditions: Trolox reference standard
Excerpt: Table 5 lists representative novel 1,6-dienes analogs of Formula I-III which are useful as anti-oxidant. ORAC 5.0 consists of five types of ORAC assays that evaluate the antioxidant capacity of material against five primary reactive oxygen species (ROSs, commonly called “oxygen radicals”) found in humans: peroxyl radical, hydroxyl radical, superoxide anion, singlet oxygen, and […]. Trolox is used as reference standard, and the results are expressed as μ mole Trolex equivalency per gram (or milliliter) of a tested material.

SMILES	significant whitening of melanocytes observed as early as [1]	alterations of cell morphology [1]	whitening effects on skin melanocytes [1]	whitening effects on melanocytes [1]	toxicity on reconstructed skin [1]	ORAC [2]
CC(C)=CCCC(C)=Cc1ccc(O)cc1 (mixture of isomers) [Compound 1, (E/Z)-4-(2,6-dimethylhepta-1,5-dienyl)phenol]	3 days	without causing any detectable alterations	significant whitening effects	significant whitening effects	–	–
CC(C)=CCC/C(C)=C/c1cc(O)cc(O)c1 [Compound 4, (E/Z)-5-(2,6-dimethylhepta-1,5-dienyl)benzene-1,3-diol]	–	–	–	significant whitening effects	some toxicity	22580 μ mole TE/gram
CC(C)=CCCC(C)/C=C/c1ccc(O)cc1 (stereo not shown) [Compound 5, (E)-4-(3,7-dimethylocta-1,6-dienyl)phenol]	–	–	–	–	–	37643 μ mole TE/gram
CC(C)=CCCC(C)/C=C/c1ccc(O)cc1O (stereo not shown) [Compound 6, (E)-4-(3,7-dimethylocta-1,6-dienyl) benzene-1,3-diol]	3 days	without causing any detectable alterations	significant whitening effects	significant whitening effects	–	45869 μ mole TE/gram
CC(C)=CCCC(C)/C=C/c1cc(O)cc(O)c1 (stereo not shown) [Compound 7, (E)-5-(3,7-dimethylocta-1,6-dienyl) benzene-1,3-diol]	–	–	–	significant whitening effects	some toxicity	18196 μ mole TE/gram
CC(C)=CCCC(C)C/C=C\c1cc(O)cc(O)c1 (stereo not shown) [Compound 15, (Z)-5-(4,8-dimethylnona-1,7-dienyl) benzene-1,3-diol]	–	–	–	significant whitening effects	some toxicity	11951 μ mole TE/gram

— US12358859B2, “Series of compounds for treatment of skin diseases and other conditions” (Unigen, Inc., priority 2018, dated 2025)
